Measurements as given in US7910750B2, “Artemisinin (qinghaosu) derivatives, their preparation methods and their use, and pharmaceutical compositions containing the same” (Shanghai Institute of Materia Medica, Chinese Academy of …, priority 2005, dated 2011).
Values after ≈ are worked out from the molar mass of the structure shown. Like-named read-outs stand apart in the source and are kept apart here.

Tests used:
[1] = tested on: T lymphocyte; assay: Lymphocyte proliferation test, T lymphocyte proliferation response induced by ConA ([3H]-thymidine); format: cell-based, mouse; conditions: 48 hours
Experimental: B. Lymphocyte Proliferation Test […] […] 3. After incubated in 5% CO2 incubator at 37° C. for 48 hours, 0.5 μCi [^3H]-thymidine (25 μL/well) was added into each well 7-8 hours before the termination of the incubation. 4.

[2] = tested on: B lymphocyte; assay: Lymphocyte proliferation test, B lymphocyte proliferation response induced by LPS ([3H]-thymidine); format: cell-based, mouse; conditions: 48 hours
Experimental: 3. After incubated in 5% CO2 incubator at 37° C. for 48 hours, 0.5 μCi [^3H]-thymidine (25 μL/well) was added into each well 7-8 hours before the termination of the incubation. 4.

[3] = Lymphocytotoxicity test (MTT); format: cell-based, mouse; conditions: BALB/c, primary spleen cells (splenic mononuclear cells), mouse spleen cells
Experimental: (§1) A. Lymphocytotoxicity Test
(§2) 1. BALB/c mice were killed by cervical dislocation, and their spleens were removed aseptically. A single spleen cell suspension was prepared and cell debris and clumps were removed.
(§3) 2. 80 μL cell suspension, 40 μL testing sample, 40 μL medium containing 10% FBS were added into 96 well plate; for the control group, 80 μL medium was added the total volume was 160 μL, and blank control group was set.
(§4) 3. After incubated in 5% CO2 incubator at 37° C. for 48 hours, 16 μL MTT (5 mg/mL) reagent was added into each well 6-7 hours before the termination of the incubation.

[4] = tested on: BALB/c mouse spleen cells; assay: Lymphocytotoxicity test (MTT); format: cell-based; conditions: 48 hours
Experimental: as §1, §2, §3, §4

[5] = tested on: BALB/c mice; conditions: ear swelling
Experimental: Each rear paw of BALB/c mice (female, 6-8 weeks old) was sensitized with 20 μL 0.5% DNFB (2,4-dinitrofluorobenzene) on day 0, and was reinforced next day (DNFB was dissolved in an oil agent [acetone:olive oil=4:1]);
Inside and outside of left ear of the mice were challenged with 10 μL 0.4% DNFB at day 7-9;
The test sample was administrated once 1 hour before challenge by i.p. injection or intragastric adminatration. After 12 hours, administered again;
24-48 hours after challenge, each index was measured.
Note: For BALB/c mice (female, 6-8 weeks old), the concentration of sensitizing agent was 0.7%, the concentration of challenging agent was 0.6%.

[6] = tested on: IFN-γ; conditions: for production of cytokine IFN-γ: 24 hours
Experimental: (§5) D. Induction and Detection of Cytokine
(§6) 1. BALB/c mice were killed by cervical dislocation, their spleens were removed aseptically, and a single spleen cell suspension was prepared. After the red blood cells were removed, the cell concentration was adjusted to 5×10^6/mL with RPMI-1640 medium containing 10% FBS.
(§7) 2. 1 mL cell suspension, 0.5 mL test sample and 0.5 mL ConA (final concentration 5 μg/mL) or Sac (Staphylococcus aureus thallus containing staphylococcus protein A) (final concentration 0.01%) were added into […]; for the control group, 0.5 mL medium containing 10% FBS was added, the final volume was 2 mL.
(§8) 3. Incubated in 5% CO2 incubator at 37° C. for 24 or 48 hours, the supernatant was collected and freezed in −20° C. refrigerator, the cytokines was to be detected.
(§9) 4. Production of cytokines was detected with a double antibody sandwich enzyme linked immunosorbent assay (ELISA). TMB was used as substrate of the enzyme reaction, and the OD values was measured with a microplate reader at 450 nm. The production amount of cytokines of the samples was calculated according to the standard curve.

[7] = tested on: TNF-α; conditions: stimulated with PMA; dose dependent
Experimental: as §5, §6, §7, §8, §9

[8] = tested on: IL-6; conditions: for production of cytokine IL-6: 24 hours
Experimental: as §5, §6, §7, §8, §9

[9] = tested on: IL-2; conditions: stimulator ConA, 24 hours
Experimental: as §5, §6, §7, §8, §9

[10] = tested on: IL-12; conditions: for production of cytokine IL-12: 24 hours
Experimental: as §5, §6, §7, §8, §9

[11] = tested on: SD rats; conditions: intraperitoneally injected
[12] = tested on: BALB/c mouse spleen cells and C57BL/6 mouse spleen cells
Experimental: C. Mixed Lymphocyte Reaction (MLR)
1. C57BL/6 and BALB/c mice were killed by cervical dislocation, their spleens were removed aseptically, and a single spleen cell suspension was prepared. After the red blood cells were removed, the cell concentration was adjusted to 4×10^6/mL with RPMI-1640 medium containing 10% FBS.
2. The spleen cells of C57BL/6 mice were response cells, and the spleen cells of BALB/c mice (irradiated with Co60, 3000 rads) were stimulator cells, the two kinds of cells were mixed with equal volumes.
3. 100 μL mixed cell suspension, 100 μL test sample were added into a 96-well plate; for the control group, 100 μL medium containing 10% serum was added, and single culture controls of the two kinds of cells were set.
4. Incubated in 5% CO2 incubator at 37° C. for 3, 4 or 5 days. 25 μL ^3H dilution (i.e. […] [^3H]-thymidine) was added 1 day before the termination of the incubation.
5. The incubation was terminated, the plate was freezed in a −20° C. refrigerator.
6. The cells were harvested with a cell harvestor ([…]96®, TOMTEC) on a glass fiber film, the incorporation of [^3H]-thymidine in DNA was detected with a liquid scintillation counter (MicroBeta Trilux®, PerkinElmer), which reflected the state of cell proliferation.

[13] = tested on: BALB/c mice; conditions: administered in vivo, BALB/c mice immunized with sheep red blood cells
Experimental: F. Production of Anti Sheep Red Blood Cell Specific Antibody of Mouse B Cells
Fresh sheep red blood cells (SRBC) were washed 3 times with PBS (pH7.2), and diluted by 1:20;
Fresh serum of guinea pig was diluted by 1:10;
2×10^7/mL of mouse spleen cell suspension was prepared;
Each 1 mL of the above three solutions was mixed and incubated at 37° C. for 1.5 hours, then is centrifuged with 2500 rpm×15 min. OD value was measured at 520 nM.
BALB/c mice were sensitized 3 days after administration: the sheep red blood cells were washed 3 times with saline, and the SRBC pressed volume was diluted by a rate of 5%. Each mouse was intraperitoneally injected with 0.2 mL, and dissected to take its spleen 6 days after sensitization. And the production amount of the antibodies was measured.

[14] = mouse spleen cells, ConA, read-out: Inhibiting activity of T lymphocyte proliferation response induced by ConA IC50
[15] = mouse spleen cells, read-out: Lymphocytotoxicity CC50
[16] = mouse spleen cells, LPS, read-out: Inhibiting activity of B lymphocyte proliferation response induced by LPS IC50
[17] = SM735 10−^5 Mol/L, stimulator LPS
[18] = SM735 10−^5 Mol/L, stimulator PMA + Ion
[19] = SM735 10−^6 Mol/L, stimulator LPS
[20] = SM735 10−^6 Mol/L, stimulator PMA + Ion
[21] = SM735 10−^7 Mol/L, stimulator LPS
[22] = SM735 10−^7 Mol/L, stimulator PMA + Ion

C[C@@H]1CC[C@H]2[C@@H](C)C(=O)O[C@@H]3O[C@@]4(C)CC[C@@H]1[C@]32OO4 [artemisinine, artemisinin]
IC50 ([1]; T-lymphocyte, mouse spleen cells, ConA, read-out: Inhibiting activity of T lymphocyte proliferation response induced by ConA IC50): 4430 nM
IC50 ([2]; Lymphocyte, mouse spleen cells, LPS, read-out: Inhibiting activity of B lymphocyte proliferation response induced by LPS IC50): 8960 nM
CC50 at 48 h [3]: 28300 nM

C[C@H]1[C@H](OC(=O)CCC(=O)O)O[C@@H]2O[C@@]3(C)CC[C@H]4[C@H](C)CC[C@@H]1[C@@]24OO3 [artesunate, reference compound]
IC50 [1, 14]: 3820 nM
CC50 [4, 15]: 86000 nM

COC(=O)Cc1ccc(OC2OC3OC4(C)CCC5C(C)CCC(C2C)C35OO4)cc1 (stereo not drawn) [compound 1, methyl 4-(12β-artemisininoxy)phenyl acetate]
IC50 [1, 14]: 713 nM
IC50 [2, 16]: 179 nM
CC50 [4, 15]: 8000 nM

CC1CCC2C(C)C(Oc3ccc(CC(=O)O)cc3)OC3OC4(C)CCC1C32OO4 (stereo not drawn) [compound 2, 4-(12β-artemisininoxy)phenyl acetic acid]
IC50 [1, 14]: 11800 nM
IC50 [2, 16]: 10200 nM
CC50 [4, 15]: 100000 nM

CC1CCC2C(C)C(Oc3cccc(OC(CC(=O)O)C(=O)O)c3)OC3OC4(C)CCC1C32OO4 (stereo not drawn) [compound 3, 3-(12β-artemisininoxy)phenoxy succinic acid]
DTH reaction induced by DNFB [5]: inhibited
IC50, T lymphocyte proliferation response induced by ConA [1]: 0.13 µg/mL (≈ 0.264 µM)
IC50 ([1]; mean ± standard error, read-out: IC50, proliferation of spleen cells induced by ConA): 330 ± 60 nM
IC50 [1, 14]: 327 nM
production of cytokine IFN-γ ([6]; SM735 10−^5 Mol/L, stimulator ConA): 322 ± 18 pg/mL
production of cytokine IFN-γ [6, 17]: 103 ± 7 pg/mL
production of cytokine IFN-γ [6, 18]: 144 ± 21 pg/mL
production of cytokine IFN-γ ([6]; SM735 10−^6 Mol/L, stimulator ConA): 976 ± 18 pg/mL
production of cytokine IFN-γ [6, 19]: 172 ± 2 pg/mL
production of cytokine IFN-γ [6, 20]: 557 ± 31 pg/mL
production of cytokine IFN-γ ([6]; SM735 10−^7 Mol/L, stimulator ConA): 1219 ± 33 pg/mL
production of cytokine IFN-γ [6, 21]: 207 ± 13 pg/mL
production of cytokine IFN-γ [6, 22]: 768 ± 6 pg/mL
production of IFN-γ (result in words) ([6]; activated lymphocytes): inhibited
production of TNF-α (result in words) [7]: obviously inhibited
production of cytokine IL-6 [8, 17]: 522 ± 1 pg/mL
production of cytokine IL-6 [8, 18]: 1465 ± 35 pg/mL
production of cytokine IL-6 [8, 19]: 792 ± 42 pg/mL
production of cytokine IL-6 [8, 20]: 2663 ± 52 pg/mL
production of cytokine IL-6 [8, 21]: 840 ± 10 pg/mL
production of cytokine IL-6 [8, 22]: 2886 ± 26 pg/mL
production of IL-6 (result in words) ([8]; stimulated with PMA, dose dependent): obviously inhibited
production of cytokine IL-2 ([9]; SM735 10−^5 Mol/L): 2053 ± 162 pg/mL
production of cytokine IL-2 ([9]; SM735 10−^6 Mol/L): 2343 ± 154 pg/mL
production of cytokine IL-2 ([9]; SM735 10−^7 Mol/L): 2250 ± 77 pg/mL
production of cytokine IL-12 [10, 17]: 292 ± 26 pg/mL
production of cytokine IL-12 [10, 18]: 198 ± 35 pg/mL
production of cytokine IL-12 [10, 19]: 565 ± 18 pg/mL
production of cytokine IL-12 [10, 20]: 487 ± 37 pg/mL
production of cytokine IL-12 [10, 21]: 592 ± 33 pg/mL
production of cytokine IL-12 [10, 22]: 586 ± 52 pg/mL
production of IL-12 (result in words) ([10]; activated lymphocytes): inhibited
IC50, B lymphocyte proliferation response induced by LPS [2]: 0.12 µg/mL (≈ 0.244 µM)
IC50 ([2]; mean ± standard error, read-out: IC50, proliferation of spleen cells induced by LPS): 270 ± 20 nM
IC50 [2, 16]: 265 nM
effect in rat adjuvant-induced arthritis animal model [11]: certain preventive and therapeutic effect
IC50, proliferation response caused by mixed lymphocyte reaction ([12]; 96 hours): 2.1 µg/mL (≈ 4.26 µM)
IC50 ([12]; read-out: IC50, one way mixed lymphocyte reaction, co-cultured for 96 hours, no unit printed): 860 ± 180 nM
cytotoxicity CC50 ([4]; BALB/c mouse spleen cells): 27 µg/mL
CC50 ([4]; BALB/c mouse spleen cells, mean ± standard error, read-out: cytotoxicity CC50): 53100 ± 7800 nM
CC50 [4, 15]: 52700 nM
antibody and complement production by mouse B cell (antibody forming cell) [13]: inhibited

CC1CCC2C(C)C(Oc3ccc(OCC(=O)OCCN(C)C)cc3)OC3OC4(C)CCC1C32OO4 (stereo not drawn) [compound 4, dimethylaminoethyl-[4-(12β-artemisininoxy)phenoxy] acetate]
IC50 [1, 14]: 1960 nM
IC50 [2, 16]: 49.6 nM
CC50 [4, 15]: 2080 nM

CCOC(=O)CNC(=O)c1ccc(OC2OC3OC4(C)CCC5C(C)CCC(C2C)C35OO4)cc1 (stereo not drawn) [compound 5, ethyl-[4-(12β-artemisininoxy)benzoyl] aminoacetate]
IC50 [1, 14]: 2530 nM
IC50 [2, 16]: 160 nM
CC50 [4, 15]: 39000 nM

COC(=O)C(C)c1ccc(OC2OC3OC4(C)CCC5C(C)CCC(C2C)C35OO4)cc1 (stereo not drawn) [compound 21, methyl 2-[4-(12β-artemisininoxy)phenyl] propionate]
IC50 [1, 14]: 64 nM
IC50 [2, 16]: 160 nM
CC50 [4, 15]: 7800 nM
